Where two headings read alike, the source gives them in different places.
Key:
[1] = tested on: tomato yellow leaf curl disease (TYLCV); assay: Control test on tomato yellow leaf curl disease (TYLCV) (soil drench test); assay type: in vivo, tomato yellow leaf curl virus
Procedure: Granules containing 3% of tolprocarb (a) (trade name; Sanblas (registered trademark) granules (manufactured by Mitsui Chemical Agro Co., Ltd.)), granules containing 5% of pyroquilon (b) (trade name; Coratop (registered trademark) granules (manufactured by Syngenta Japan Ltd.)) and granules containing 1% of dinotefran (trade name; Starkle (registered trademark) granules (manufactured by Mitsui Chemicals Agro Co., Ltd.)) were respectively treated or were treated in combination to plant foot of tomato in a predetermined amount. Seven days after chemical agent treatment, the plants were inoculated by sucking of one adult of TYLCV-carrying tobacco whitefly biotype Q per plant for 3 days. Thereafter, the inoculated plants were put in the greenhouse to promote infection, and the control effect was examined after the infection. The infection was examined by the degree of infection, and the disease severity index was calculated based on the degree of infection. The control value was calculated from the disease severity index.
1: observation of initial infection (delayed infection)
2: observation of infection Severity index=((the number of plants of infection index 0×0)+(the number of plants of infection index 1×1)+(the number of plants of infection index 2×2)/(the number of plants examined×2))×100
(§1) The synergistic effect was calculated from the following Colby's equation. Synergistic effect (expected value)=(control value of compound A+control value of compound B)−(control value of compound A×control value of compound B)/100
(§2) When the control value exceeded the expected value in the case of mixing the compounds and applying the mixed product, it was determined that there was a synergistic effect.

Rice Streak Virus (RSV) = assay: Control test on rice streak virus (RSV) (field trial of nursery box application); assay type: in vivo, rice stripe virus; conditions: rice (cultivar: Hinohikari)
Procedure: Rice seedlings (cultivar: Hinohikari) were grown in a greenhouse according to an ordinary procedure and transplanted to an open paddy field. Granules containing 4% of tolprocarb (a) and granules containing 6% of dinotefuran (insecticidal ingredient) formulated according to Formulation Example 2 were respectively treated or were treated in combination in 50 g per box in a nursery box on the day of transplantation. 35 days after transplantation, larvae of RSV-carrying small brown planthopper were released for one week to inoculate rice plants by sucking. At 79 days and 99 days after transplantation, the presence or absence of the unshooting of head was examined.

[2] = tested on: cucumber mosaic virus (CMV); conditions: for Control value / Disease Severity index / Number of CMV Infected Leaves: Acute wilt / Number of CMV Infected Leaves: Mosaic / Number of CMV Infected Leaves: No Infection: drench 1 day before inoculation; for Number of CMV Infected Leaves: Acute wilt / Number of CMV Infected Leaves: Mosaic / Number of CMV Infected Leaves: No Infection: 3 checked
[3] = tested on: Chinese cabbage soft rot bacteria (Erwinia carotovora subsp. carotovora); assay: Control test on Chinese cabbage soft rot (soil incorporation test); assay type: in vivo
Text: Granules containing 3% of tolprocarb (a) (trade name; Sanblas (registered trademark) granules (manufactured by Mitsui Chemical Agro Co., Ltd.)), granules containing 5% of pyroquilon (b) (trade name; Coratop (registered trademark) granules (manufactured by Mitsui Chemical Agro Co., Ltd.)), granules containing 1.5% of simeconazole (fungicidal component) (trade name; Mongalite (registered trademark) granules (manufactured by Mitsui Chemical Agro Co., Ltd.)) and flowable containing 20% of penthiopyrad (fungicidal component) were respectively incorporated or were incorporated in combination into a pot soil in a predetermined amount. Then, the Chinese cabbage was planted in the pot soil. At 14 days after chemical agent treatment, the Chinese cabbage soft rot was inoculated. […] Thereafter, the inoculated plantes were put in a 25° C. greenhouse to promote infection for 2 days, and the control effect was examined. The infection was examined by the degree of infection, and the disease severity index was calculated based on the degree of infection. The control value was calculated from the disease severity index.
Severity index=((the number of leaves of infection index 0×0)+(the number of leaves of infection index 1×1)+(the number of leaves of infection index 2×2)+(the number of leaves of infection index 3×3)/(the number of leaves examined×3)×100
as §1, §2

[4] = tested on: cucumber mosaic virus (CMV)
[5] = cucumber (cultivar: Sagami-hanjiro)
[6] = 5 plants, drench 3 days before inoculation, g ai/10a: (a) 90, (b) 150, dinotefuran 120, thiamethoxam 60, (h) 250, mixtures 90 + 120 and 150 + 60
[7] = drench 3 days before inoculation, g ai/10a: (a) 90, (b) 150, dinotefuran 120, thiamethoxam 60, (h) 250, mixtures 90 + 120 and 150 + 60

What does the source list for `Cc1ccc(C(=O)NC[C@@H](NC(=O)OCC(F)(F)F)C(C)C)cc1` [Tolprocarb (a), tolprocarb]?
phytotoxicity ([1]; tomato (cultivar: Sekai-ichi)): not observed; control effect on tomato yellow leaf curl disease (TYLCV) (in words) ([1]; treatment on 7 day before inoculation): excellent control effect; phytotoxicity (Rice Streak Virus (RSV)): not observed; Control value ([2]; 22.5 g ai/10a): 66.7; Disease Severity index ([2]; 22.5 g ai/10a): 33.3; Number of CMV Infected Leaves: Acute wilt ([2]; 22.5 g ai/10a): 1; Number of CMV Infected Leaves: Mosaic ([2]; 22.5 g ai/10a): 0; Number of CMV Infected Leaves: No Infection ([2]; 22.5 g ai/10a): 2; Control value ([2]; 45 g ai/10a): 16.7; Disease Severity index ([2]; 45 g ai/10a): 83.3; Number of CMV Infected Leaves: Acute wilt ([2]; 45 g ai/10a): 2; Number of CMV Infected Leaves: Mosaic ([2]; 45 g ai/10a): 1; Number of CMV Infected Leaves: No Infection ([2]; 45 g ai/10a): 0; Control value ([2]; 90 g ai/10a): 50.0; Disease Severity index ([2]; 90 g ai/10a): 50.0; Number of CMV Infected Leaves: Acute wilt ([2]; 90 g ai/10a): 1; Number of CMV Infected Leaves: Mosaic ([2]; 90 g ai/10a): 1; Number of CMV Infected Leaves: No Infection ([2]; 90 g ai/10a): 1; phytotoxicity [2, 5]: not observed; control effect on cucumber mosaic virus (CMV) (in words) ([2]; treatment on 1 day before inoculation): excellent control effect; phytotoxicity ([3]; Chinese cabbage plant (cultivar: Muso)): not observed; control effect on the Chinese cabbage soft rot (in words) ([3]; whole soil incorporation at the time of planting): excellent control effect; Number of CMV Infected Plants: Acute wilt [4, 6]: 0; Number of CMV Infected Plants: Mosaic [4, 6]: 3; Number of CMV Infected Plants: No Infection [4, 6]: 2; phytotoxicity [4, 5]: not observed; Control value [4, 7]: 66.7; Disease Severity index [4, 7]: 30.0; control effect on cucumber mosaic virus (CMV) (in words) ([4]; treatment on 3 day before inoculation): excellent control effect

Reference: patent US11185076B2 (priority 2017, dated 2021)
